{
  "source": "paper doi:10.1101/2023.10.20.563248v1",
  "about": "(biorxiv, 2023)",
  "settings_in_all_cases": "1 µM; inhibitor",
  "key": {"[1]": {"biological_target": "BMX (Homo sapiens, UniProt P51813)"}, "[2]": {"biological_target": "CDK10 (Homo sapiens, UniProt Q15131)", "sequence (Q15131 whole entry)": "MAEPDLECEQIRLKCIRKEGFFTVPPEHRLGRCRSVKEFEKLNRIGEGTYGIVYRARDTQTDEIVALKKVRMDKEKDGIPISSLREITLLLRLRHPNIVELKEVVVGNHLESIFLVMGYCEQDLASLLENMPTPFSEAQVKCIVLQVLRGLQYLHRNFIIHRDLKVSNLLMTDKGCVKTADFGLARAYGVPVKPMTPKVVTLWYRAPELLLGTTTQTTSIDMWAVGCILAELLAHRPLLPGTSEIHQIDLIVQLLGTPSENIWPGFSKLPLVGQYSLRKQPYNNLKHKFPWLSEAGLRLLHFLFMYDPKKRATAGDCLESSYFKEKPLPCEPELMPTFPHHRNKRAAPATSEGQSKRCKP"}, "[3]": {"biological_target": "CDK3 (Homo sapiens, UniProt Q00526)"}, "[4]": {"biological_target": "CDK6 (Homo sapiens, UniProt Q00534)"}, "[5]": {"biological_target": "CDK6/CycD2 (Homo sapiens, UniProt Q00534)"}, "[6]": {"biological_target": "CK1g2 (Homo sapiens, UniProt P78368)"}, "[7]": {"biological_target": "DAPK3 (Homo sapiens, UniProt O43293)", "sequence (O43293 whole entry)": "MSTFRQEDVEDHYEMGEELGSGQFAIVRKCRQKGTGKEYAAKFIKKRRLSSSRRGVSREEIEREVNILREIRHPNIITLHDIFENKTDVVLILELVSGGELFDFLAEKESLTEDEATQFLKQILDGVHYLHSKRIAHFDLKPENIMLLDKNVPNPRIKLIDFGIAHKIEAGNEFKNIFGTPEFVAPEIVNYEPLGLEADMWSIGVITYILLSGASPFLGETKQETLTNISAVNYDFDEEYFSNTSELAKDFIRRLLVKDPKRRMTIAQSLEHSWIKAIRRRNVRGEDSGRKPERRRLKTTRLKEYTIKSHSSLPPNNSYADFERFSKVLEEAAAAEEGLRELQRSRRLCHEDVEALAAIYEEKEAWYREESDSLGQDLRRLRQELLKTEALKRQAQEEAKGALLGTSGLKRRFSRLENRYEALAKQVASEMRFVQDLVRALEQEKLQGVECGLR"}, "[8]": {"biological_target": "DYRK4 (Homo sapiens, UniProt Q9NR20)"}, "[9]": {"biological_target": "EPHA1 (Homo sapiens, UniProt P21709)"}, "[10]": {"biological_target": "ERBB4 (Homo sapiens, UniProt Q15303)", "sequence (Q15303 whole entry)": "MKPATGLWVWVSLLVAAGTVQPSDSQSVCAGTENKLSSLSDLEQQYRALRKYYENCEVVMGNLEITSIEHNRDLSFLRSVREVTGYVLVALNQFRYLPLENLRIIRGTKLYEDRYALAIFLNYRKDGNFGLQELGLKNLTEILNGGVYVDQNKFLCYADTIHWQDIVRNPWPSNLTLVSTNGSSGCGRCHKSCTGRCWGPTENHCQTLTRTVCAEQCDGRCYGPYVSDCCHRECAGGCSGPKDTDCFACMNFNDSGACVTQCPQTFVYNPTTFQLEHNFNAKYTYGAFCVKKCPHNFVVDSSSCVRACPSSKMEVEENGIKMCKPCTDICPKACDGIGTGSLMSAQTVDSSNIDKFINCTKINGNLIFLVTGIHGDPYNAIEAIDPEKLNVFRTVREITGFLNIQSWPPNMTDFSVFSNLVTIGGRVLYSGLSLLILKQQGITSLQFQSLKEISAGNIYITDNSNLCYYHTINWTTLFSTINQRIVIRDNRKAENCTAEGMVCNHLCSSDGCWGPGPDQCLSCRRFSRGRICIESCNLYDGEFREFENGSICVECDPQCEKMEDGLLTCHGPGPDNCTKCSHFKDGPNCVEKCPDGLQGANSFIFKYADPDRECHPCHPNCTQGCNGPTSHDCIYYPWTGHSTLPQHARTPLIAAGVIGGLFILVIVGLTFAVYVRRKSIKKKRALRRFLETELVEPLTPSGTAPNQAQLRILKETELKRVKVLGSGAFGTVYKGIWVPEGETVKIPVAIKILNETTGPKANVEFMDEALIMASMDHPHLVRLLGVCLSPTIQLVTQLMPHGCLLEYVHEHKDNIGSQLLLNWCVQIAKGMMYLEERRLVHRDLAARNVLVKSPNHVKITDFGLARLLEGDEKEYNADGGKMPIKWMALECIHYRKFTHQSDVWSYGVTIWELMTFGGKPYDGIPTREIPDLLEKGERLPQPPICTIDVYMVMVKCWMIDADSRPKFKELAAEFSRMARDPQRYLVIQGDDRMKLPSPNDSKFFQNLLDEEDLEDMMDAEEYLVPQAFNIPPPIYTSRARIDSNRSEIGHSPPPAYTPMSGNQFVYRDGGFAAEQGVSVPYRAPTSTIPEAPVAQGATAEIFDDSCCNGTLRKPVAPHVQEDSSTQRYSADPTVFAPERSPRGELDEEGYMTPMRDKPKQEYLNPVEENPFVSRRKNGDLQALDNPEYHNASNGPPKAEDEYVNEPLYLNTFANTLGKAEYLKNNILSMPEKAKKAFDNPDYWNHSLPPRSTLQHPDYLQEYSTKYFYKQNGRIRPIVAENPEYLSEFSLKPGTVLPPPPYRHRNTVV"}, "[11]": {"biological_target": "GRK2 (Homo sapiens, UniProt P25098)", "sequence (P25098 whole entry)": "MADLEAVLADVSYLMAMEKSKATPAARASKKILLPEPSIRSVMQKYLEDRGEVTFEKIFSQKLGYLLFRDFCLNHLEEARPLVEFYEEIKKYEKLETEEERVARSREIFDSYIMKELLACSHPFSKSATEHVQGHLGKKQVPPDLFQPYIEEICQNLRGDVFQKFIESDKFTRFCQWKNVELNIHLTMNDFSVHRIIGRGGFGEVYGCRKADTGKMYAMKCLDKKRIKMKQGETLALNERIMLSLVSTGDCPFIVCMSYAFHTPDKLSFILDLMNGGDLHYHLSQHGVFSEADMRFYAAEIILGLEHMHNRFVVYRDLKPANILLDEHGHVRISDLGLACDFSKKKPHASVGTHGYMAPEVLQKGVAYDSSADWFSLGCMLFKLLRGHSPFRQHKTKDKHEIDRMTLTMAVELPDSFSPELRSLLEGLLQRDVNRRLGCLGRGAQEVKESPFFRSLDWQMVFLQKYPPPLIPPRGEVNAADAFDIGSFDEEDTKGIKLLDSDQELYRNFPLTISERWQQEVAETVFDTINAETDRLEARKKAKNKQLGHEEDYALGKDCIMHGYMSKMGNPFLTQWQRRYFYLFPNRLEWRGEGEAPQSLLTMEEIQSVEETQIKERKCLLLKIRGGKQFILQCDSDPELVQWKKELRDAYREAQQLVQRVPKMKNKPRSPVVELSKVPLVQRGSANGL"}, "[12]": {"biological_target": "GRK4 (Homo sapiens, UniProt P32298)"}, "[13]": {"biological_target": "JAK2 (Homo sapiens, UniProt O60674)"}, "[14]": {"biological_target": "MAP3K1 (Homo sapiens, UniProt Q13233)"}, "[15]": {"biological_target": "MERTK (Homo sapiens, UniProt Q12866)"}, "[16]": {"biological_target": "MET (Homo sapiens, UniProt P08581)"}, "[17]": {"biological_target": "MLK4 (Homo sapiens, UniProt Q5TCX8)"}, "[18]": {"biological_target": "MST4 (Homo sapiens, UniProt Q9P289)", "sequence (Q9P289 whole entry)": "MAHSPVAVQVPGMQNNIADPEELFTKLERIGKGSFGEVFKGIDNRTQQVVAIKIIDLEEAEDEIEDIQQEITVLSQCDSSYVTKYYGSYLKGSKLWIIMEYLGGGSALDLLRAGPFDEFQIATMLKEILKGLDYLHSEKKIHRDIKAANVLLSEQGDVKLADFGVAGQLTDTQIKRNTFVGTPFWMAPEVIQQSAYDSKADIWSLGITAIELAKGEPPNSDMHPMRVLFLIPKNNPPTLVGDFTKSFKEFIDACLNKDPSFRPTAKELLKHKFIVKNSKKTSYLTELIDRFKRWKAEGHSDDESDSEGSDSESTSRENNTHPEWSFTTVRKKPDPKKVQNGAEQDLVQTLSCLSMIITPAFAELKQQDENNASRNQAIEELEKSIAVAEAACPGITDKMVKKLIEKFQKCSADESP"}, "[19]": {"biological_target": "NEK2 (Homo sapiens, UniProt P51955)", "sequence (P51955 whole entry)": "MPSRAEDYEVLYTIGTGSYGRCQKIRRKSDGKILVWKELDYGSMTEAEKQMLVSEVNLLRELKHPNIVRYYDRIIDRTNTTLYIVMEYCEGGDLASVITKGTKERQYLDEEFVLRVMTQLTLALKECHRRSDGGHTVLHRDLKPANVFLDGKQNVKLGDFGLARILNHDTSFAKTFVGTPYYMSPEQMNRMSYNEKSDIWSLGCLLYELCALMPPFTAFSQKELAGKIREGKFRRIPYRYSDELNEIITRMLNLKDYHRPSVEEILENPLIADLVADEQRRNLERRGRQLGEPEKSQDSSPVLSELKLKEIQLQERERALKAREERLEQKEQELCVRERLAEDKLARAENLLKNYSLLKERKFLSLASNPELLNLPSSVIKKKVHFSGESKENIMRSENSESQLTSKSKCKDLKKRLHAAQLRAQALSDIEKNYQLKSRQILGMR"}, "[20]": {"biological_target": "PDGFRa (Homo sapiens, UniProt P16234)"}, "[21]": {"biological_target": "PKCg (Homo sapiens, UniProt P05129)"}, "[22]": {"biological_target": "ROCK1 (Homo sapiens, UniProt Q13464)"}, "[23]": {"biological_target": "SAK (Homo sapiens, UniProt O00444)"}, "[24]": {"biological_target": "SGK1 (Homo sapiens, UniProt O00141)", "sequence (O00141 whole entry)": "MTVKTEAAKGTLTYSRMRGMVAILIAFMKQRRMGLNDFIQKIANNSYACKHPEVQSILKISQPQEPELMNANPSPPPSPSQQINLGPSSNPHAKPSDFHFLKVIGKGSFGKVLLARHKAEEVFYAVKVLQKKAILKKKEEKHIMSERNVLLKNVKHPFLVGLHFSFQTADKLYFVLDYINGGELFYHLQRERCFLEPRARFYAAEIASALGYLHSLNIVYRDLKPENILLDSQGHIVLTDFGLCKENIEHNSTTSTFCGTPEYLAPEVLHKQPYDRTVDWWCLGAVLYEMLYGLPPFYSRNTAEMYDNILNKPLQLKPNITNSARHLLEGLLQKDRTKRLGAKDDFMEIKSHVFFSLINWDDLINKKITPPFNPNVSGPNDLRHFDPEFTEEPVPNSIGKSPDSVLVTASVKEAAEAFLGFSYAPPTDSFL"}, "[25]": {"biological_target": "SGK3 (Homo sapiens, UniProt Q96BR1)"}, "[26]": {"biological_target": "TRKB (Homo sapiens, UniProt Q16620)"}, "[27]": {"biological_target": "VEGFR1 (Homo sapiens, UniProt P17948)"}, "[28]": {"biological_target": "WEE1 (Homo sapiens, UniProt P30291)", "sequence (P30291 whole entry)": "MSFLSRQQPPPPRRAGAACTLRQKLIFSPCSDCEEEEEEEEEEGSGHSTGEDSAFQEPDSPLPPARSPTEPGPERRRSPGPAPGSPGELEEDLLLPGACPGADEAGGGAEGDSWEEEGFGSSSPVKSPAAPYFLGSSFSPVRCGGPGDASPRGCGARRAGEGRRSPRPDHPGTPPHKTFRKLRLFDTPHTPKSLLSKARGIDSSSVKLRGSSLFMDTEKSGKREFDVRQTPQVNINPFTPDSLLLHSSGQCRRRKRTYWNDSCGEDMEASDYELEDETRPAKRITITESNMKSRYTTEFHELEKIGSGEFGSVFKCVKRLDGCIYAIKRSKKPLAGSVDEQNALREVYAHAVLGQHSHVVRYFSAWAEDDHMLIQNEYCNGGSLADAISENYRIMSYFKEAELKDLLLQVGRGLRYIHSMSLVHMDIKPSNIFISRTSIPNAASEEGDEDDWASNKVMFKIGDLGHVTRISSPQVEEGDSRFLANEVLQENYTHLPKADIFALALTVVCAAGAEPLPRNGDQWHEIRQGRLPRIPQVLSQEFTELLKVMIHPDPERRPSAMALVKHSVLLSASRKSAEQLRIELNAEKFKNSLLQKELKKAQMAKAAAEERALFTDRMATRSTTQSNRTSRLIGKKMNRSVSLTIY"}, "[29]": {"biological_target": "WNK2 (Homo sapiens, UniProt Q9Y3S1)"}, "[30]": {"biological_target": "p38b (Homo sapiens, UniProt Q15759)"}, "[31]": {"biological_target": "p38d (Homo sapiens, UniProt O15264)"}},
  "data": [
    {"smiles": "O=C1NCCCCCNc2nc(c3ccccc3n2)Nc2cc1[nH]n2", "note": "[21c, (Z)-3^1H-2,5,11-triaza-1(4,2)-quinazolina-3(3,5)-pyrazolacycloundecaphan-4-one]", "values": [
      {"measurement": "21c Remaining activity, percent of control [%]", "setting": "[1]", "value": 84.8, "unit": "%"},
      {"measurement": "21c Remaining activity, percent of control [%]", "setting": "[2]", "value": 85.1, "unit": "%"},
      {"measurement": "21c Remaining activity, percent of control [%]", "setting": "[3]", "value": 95.9, "unit": "%"},
      {"measurement": "21c Remaining activity, percent of control [%]", "setting": "[4]", "value": 105.2, "unit": "%"},
      {"measurement": "21c Remaining activity, percent of control [%]", "setting": "[5]", "value": 85.8, "unit": "%"},
      {"measurement": "21c Remaining activity, percent of control [%]", "setting": "[6]", "value": 109.6, "unit": "%"},
      {"measurement": "21c Remaining activity, percent of control [%]", "setting": "[7]", "value": 107.0, "unit": "%"},
      {"measurement": "21c Remaining activity, percent of control [%]", "setting": "[8]", "value": 95.6, "unit": "%"},
      {"measurement": "21c Remaining activity, percent of control [%]", "setting": "[9]", "value": 99.3, "unit": "%"},
      {"measurement": "21c Remaining activity, percent of control [%]", "setting": "[10]", "value": 90.7, "unit": "%"},
      {"measurement": "21c Remaining activity, percent of control [%]", "setting": "[11]", "value": 96.7, "unit": "%"},
      {"measurement": "21c Remaining activity, percent of control [%]", "setting": "[12]", "value": 112.1, "unit": "%"},
      {"measurement": "21c Remaining activity, percent of control [%]", "setting": "[13]", "value": 96.2, "unit": "%"},
      {"measurement": "21c Remaining activity, percent of control [%]", "setting": "[14]", "value": 100.1, "unit": "%"},
      {"measurement": "21c Remaining activity, percent of control [%]", "setting": "[15]", "value": 44.2, "unit": "%"},
      {"measurement": "21c Remaining activity, percent of control [%]", "setting": "[16]", "value": 107.2, "unit": "%"},
      {"measurement": "21c Remaining activity, percent of control [%]", "setting": "[17]", "value": 99.1, "unit": "%"},
      {"measurement": "21c Remaining activity, percent of control [%]", "setting": "[18]", "value": 18.0, "unit": "%"},
      {"measurement": "21c Remaining activity, percent of control [%]", "setting": "[19]", "value": 93.5, "unit": "%"},
      {"measurement": "21c Remaining activity, percent of control [%]", "setting": "[20]", "value": 102.0, "unit": "%"},
      {"measurement": "21c Remaining activity, percent of control [%]", "setting": "[21]", "value": 79.4, "unit": "%"},
      {"measurement": "21c Remaining activity, percent of control [%]", "setting": "[22]", "value": 98.4, "unit": "%"},
      {"measurement": "21c Remaining activity, percent of control [%]", "setting": "[23]", "value": 86.5, "unit": "%"},
      {"measurement": "21c Remaining activity, percent of control [%]", "setting": "[24]", "value": 90.0, "unit": "%"},
      {"measurement": "21c Remaining activity, percent of control [%]", "setting": "[25]", "value": 96.1, "unit": "%"},
      {"measurement": "21c Remaining activity, percent of control [%]", "setting": "[26]", "value": 79.0, "unit": "%"},
      {"measurement": "21c Remaining activity, percent of control [%]", "setting": "[27]", "value": 100.3, "unit": "%"},
      {"measurement": "21c Remaining activity, percent of control [%]", "setting": "[28]", "value": 88.0, "unit": "%"},
      {"measurement": "21c Remaining activity, percent of control [%]", "setting": "[29]", "value": 94.8, "unit": "%"},
      {"measurement": "21c Remaining activity, percent of control [%]", "setting": "[30]", "value": 92.9, "unit": "%"},
      {"measurement": "21c Remaining activity, percent of control [%]", "setting": "[31]", "value": 94.8, "unit": "%"}
    ]}
  ]
}
